Test results as given in the NIST ThermoML archive (doi:10.1016/j.fluid.2008.11.013).
Numbers after ± are expanded uncertainties.

Experiments:
[1] = activity coefficient (dimensionless); of the first substance listed, at infinite dilution; xn = mol fraction of the nth substance listed; details: Liquid, Chromatography, x1 = 0
[2] = excess molar enthalpy (molar enthalpy of mixing); xn = mol fraction of the nth substance listed; details: Liquid, Flow calorimetry

`C=CCCC` [1-pentene] + CCCCCC[N+]1(C)CCCC1.O=S(=O)([N-]S(=O)(=O)C(F)(F)F)C(F)(F)F gave an activity coefficient ([1]; 303.16 K) of 3.4 ± 0.15, an activity coefficient ([1]; 313.17 K) of 3.37 ± 0.15 and an activity coefficient ([1]; 323.15 K) of 3.33 ± 0.15. The activity coefficient ([1]; 333.15 K) was 3.31 ± 0.15.
`C=CCCCCC` [1-heptene] + CCCCCC[N+]1(C)CCCC1.O=S(=O)([N-]S(=O)(=O)C(F)(F)F)C(F)(F)F showed an activity coefficient ([1]; 303.14 K) of 6.5 ± 0.3, an activity coefficient ([1]; 313.16 K) of 6.31 ± 0.29 and an activity coefficient ([1]; 323.37 K) of 6.11 ± 0.28. It also gave an activity coefficient ([1]; 333.16 K) of 6 ± 0.27.
`CCCCCCCCC` [nonane] + CCCCCC[N+]1(C)CCCC1.O=S(=O)([N-]S(=O)(=O)C(F)(F)F)C(F)(F)F gave an activity coefficient ([1]; 303.13 K) of 21.4 ± 0.99, an activity coefficient ([1]; 313.17 K) of 19.9 ± 0.92 and an activity coefficient ([1]; 323.16 K) of 18.8 ± 0.87. For the same compound, the activity coefficient ([1]; 333.16 K) was 18.1 ± 0.84 and the activity coefficient ([1]; 343.13 K) was 17.1 ± 0.79.
With `CCCCCC[N+]1(C)CCCC1.O=S(=O)([N-]S(=O)(=O)C(F)(F)F)C(F)(F)F` + CCCCC the excess molar enthalpy ([2]; 363.15 K, 2135 kPa, x2 = 0.0699) was 0.265 ± 0.00574 kcal/mol, the excess molar enthalpy ([2]; 363.15 K, 2135 kPa, x2 = 0.1337) was 0.052 ± 0.00117 kcal/mol and the excess molar enthalpy ([2]; 363.15 K, 2135 kPa, x2 = 0.1921) was 0.0702 ± 0.00155 kcal/mol. For the same compound, the excess molar enthalpy ([2]; 363.15 K, 2135 kPa, x2 = 0.2952) was 0.096 ± 0.0021 kcal/mol, the excess molar enthalpy ([2]; 363.15 K, 2135 kPa, x2 = 0.341) was 0.105 ± 0.00229 kcal/mol and the excess molar enthalpy ([2]; 363.15 K, 2135 kPa, x2 = 0.4229) was 0.0964 ± 0.0021 kcal/mol. For the same compound, the excess molar enthalpy ([2]; 363.15 K, 2135 kPa, x2 = 0.4942) was 0.0849 ± 0.00186 kcal/mol, the excess molar enthalpy ([2]; 363.15 K, 2135 kPa, x2 = 0.5568) was 0.0741 ± 0.00165 kcal/mol and the excess molar enthalpy ([2]; 363.15 K, 2135 kPa, x2 = 0.6615) was 0.056 ± 0.00124 kcal/mol. It also gave an excess molar enthalpy ([2]; 363.15 K, 2135 kPa, x2 = 0.7457) of 0.0418 ± 0.000956 kcal/mol, an excess molar enthalpy ([2]; 363.15 K, 2135 kPa, x2 = 0.8147) of 0.031 ± 0.000741 kcal/mol and an excess molar enthalpy ([2]; 363.15 K, 2135 kPa, x2 = 0.8979) of 0.0187 ± 0.000478 kcal/mol. It also gave an excess molar enthalpy ([2]; 363.15 K, 2135 kPa, x2 = 0.9635) of 0.00796 ± 0.000287 kcal/mol.
Work on `C=CCCCCCC` [oct-1-ene] + CCCCCC[N+]1(C)CCCC1.O=S(=O)([N-]S(=O)(=O)C(F)(F)F)C(F)(F)F yielded an activity coefficient ([1]; 303.14 K) of 8.93 ± 0.41, an activity coefficient ([1]; 313.16 K) of 8.61 ± 0.4 and an activity coefficient ([1]; 323.37 K) of 8.39 ± 0.38. The activity coefficient ([1]; 333.16 K) was 8.2 ± 0.38.
`CCCCCCCC` [octane] + CCCCCCCC[N+]1(C)CCCC1.O=S(=O)([N-]S(=O)(=O)C(F)(F)F)C(F)(F)F gave an activity coefficient ([1]; 303.1 K) of 8.78 ± 0.4, an activity coefficient ([1]; 313.15 K) of 8.55 ± 0.39 and an activity coefficient ([1]; 323.09 K) of 8.39 ± 0.38. For the same compound, the activity coefficient ([1]; 333.13 K) was 8.22 ± 0.38.
For `C=CCCC` [1-pentene] + CCCCCCCC[N+]1(C)CCCC1.O=S(=O)([N-]S(=O)(=O)C(F)(F)F)C(F)(F)F, the activity coefficient ([1]; 303.14 K) was 2.5 ± 0.11, the activity coefficient ([1]; 313.13 K) was 2.43 ± 0.11 and the activity coefficient ([1]; 323.11 K) was 2.33 ± 0.11. The activity coefficient ([1]; 343.11 K) was 2.25 ± 0.1.
For `C=CCCCCC` [1-heptene] + CCCC[N+]1(C)CCCC1.O=S(=O)([N-]S(=O)(=O)C(F)(F)F)C(F)(F)F, the excess molar enthalpy ([2]; 413.15 K, 2239 kPa, x1 = 0.0525) was 0.0322 ± 0.000765 kcal/mol, the excess molar enthalpy ([2]; 413.15 K, 2239 kPa, x1 = 0.1022) was 0.0621 ± 0.00139 kcal/mol and the excess molar enthalpy ([2]; 413.15 K, 2239 kPa, x1 = 0.1492) was 0.0898 ± 0.00196 kcal/mol. It also gave an excess molar enthalpy ([2]; 413.15 K, 2239 kPa, x1 = 0.2762) of 0.113 ± 0.00239 kcal/mol, an excess molar enthalpy ([2]; 413.15 K, 2239 kPa, x1 = 0.3509) of 0.1 ± 0.00217 kcal/mol and an excess molar enthalpy ([2]; 413.15 K, 2239 kPa, x1 = 0.4189) of 0.0913 ± 0.00201 kcal/mol. For the same compound, the excess molar enthalpy ([2]; 413.15 K, 2239 kPa, x1 = 0.481) was 0.0807 ± 0.00177 kcal/mol, the excess molar enthalpy ([2]; 413.15 K, 2239 kPa, x1 = 0.5904) was 0.0622 ± 0.00139 kcal/mol and the excess molar enthalpy ([2]; 413.15 K, 2239 kPa, x1 = 0.6838) was 0.0501 ± 0.00112 kcal/mol. It also gave an excess molar enthalpy ([2]; 413.15 K, 2239 kPa, x1 = 0.7643) of 0.035 ± 0.000813 kcal/mol, an excess molar enthalpy ([2]; 413.15 K, 2239 kPa, x1 = 0.8664) of 0.0204 ± 0.000526 kcal/mol and an excess molar enthalpy ([2]; 413.15 K, 2239 kPa, x1 = 0.9511) of 0.00911 ± 0.000287 kcal/mol.
In the case of `C=CCCCC` [hex-1-ene] + CCCCCCCC[N+]1(C)CCCC1.O=S(=O)([N-]S(=O)(=O)C(F)(F)F)C(F)(F)F, the activity coefficient ([1]; 303.14 K) is reported as 3.11 ± 0.14, the activity coefficient ([1]; 313.13 K) is reported as 3.29 ± 0.15 and the activity coefficient ([1]; 323.11 K) is reported as 3.22 ± 0.15. For the same compound, the activity coefficient ([1]; 343.11 K) was 3.15 ± 0.14.
In the case of `CCCCC` [pentane] + CCCCCC[N+]1(C)CCCC1.O=S(=O)([N-]S(=O)(=O)C(F)(F)F)C(F)(F)F, the activity coefficient ([1]; 303.15 K) is reported as 5.66 ± 0.26, the activity coefficient ([1]; 313.19 K) is reported as 5.31 ± 0.24 and the activity coefficient ([1]; 323.16 K) is reported as 4.8 ± 0.22. It also gave an activity coefficient ([1]; 333.14 K) of 4.51 ± 0.21.
